# What was measured:
# Format in all cases: biochemical
# LCK [1] = target: T1, LCK (Homo sapiens, UniProt P06239); test: Kinase inhibitor profiling, autophosphorylation
# T1 construct: specificity data for proteins generated from a library of eighteen full-length clones; host or cells: rabbit reticulocyte lysate, TnT coupled in vitro transcription/translation (cell-free)
# Procedure: To promote autophosphorylation in these immobilized and purified proteins, Mn++ ions were added in a 50 μl reaction containing 5 mM MgCl2, 5 mM MnCl2, 100 μM ATP, 25 mM Tris-HCl buffer pH 7.4, 0.05 mM Na3VO4, 0.004% TritonX-100, 2 mM DTT and EDTA-free protease inhibitor (Roche Molecular Biochemicals). This mixture was incubated with shaking at room temperature overnight to allow autophosphorylation. Following this incubation, wells were washed 2 times with TT-buffer and 2 times with water. Following this step, 50 ng Sulfo-TAG labeled anti-phosphotyrosine in buffer containing 25 mM Tris-HCl buffer pH 7.4, 5 mM MgCl2, 0.05 mM Na3VO4, 0.004% TritonX-100, 2 mM DTT and 0.05% IgG in a final volume of 50 μl was added followed by incubation at room temperature for 45 min. The unbound reagents were removed by one time washing with water, and the TAG label was detected in presence of 150 μl IPR assay buffer (0.4 mM Gly—Gly buffer, pH 7.8, 1 mM EDTA, 0.1 M TPA). The ECL signals were measured using an imaging plate reader.
# (§1) The unbound components of the translation reaction (including any endogenous kinases) were removed by 3 washes with TT-buffer (25 mM Tris-HCl buffer pH 7.4 and 0.004% Triton), two five minutes washes with high-salt wash buffer (25 mM Tris-HCl buffer pH 7.4, 0.004% Triton, 1M NaCl and 5 mM DTT) and 3 washes with TT-buffer. […] The mixture was incubated at room temperature for 10 mm before starting the kinase reaction by adding 25 μl of 200 μM ATP in buffer A. This mixture was incubated with intermittent shaking at room temperature for 2 hours to overnight to allow (a) phosphorylation of the pEY substrate and (b) autophosphorylation of the immobilized kinases.
# (§2) The ECL signal in control wells produced by tyrosine kinases was compared to the wells containing inhibitor compounds.
# LCK [2] = target: T1, LCK; test: Kinase inhibitor profiling, pEY phosphorylation
# Procedure: (§3) Proteins were produced in an in vitro transcription and translation reaction. […] The unbound components of the reaction containing endogenous kinases were removed by three washes with TT-buffer (25 mM Tris-HCl buffer pH 7.4 and 0.004% Triton), two five minutes washings with high-salt wash buffer (25 mM Tris-HCl buffer pH 7.4, 0.004% Triton, 1M NaCl and 5 mM DTT) and 3 more washes with TT-buffer. To these immobilized and purified proteins a tyrosine kinase substrate, 5 nM pEY (poly Glu-Tyr, Sigma, MO), was added in a 50 μl reaction solution containing 5 mM MgCl2, 5 mM MnCl2, 100 μM ATP, 25 mM Tris-HCl buffer pH 7.4, 0.05 mM Na3VO4, 0.004% TritonX-100, 2 mM DTT and EDTA-free protease inhibitor (Roche Molecular Biochemicals). This mixture was incubated with shaking at room temperature overnight to allow phosphorylation of the pEY substrate by the immobilized kinases. Following this incubation, 45 μl of this mixture was transferred to a streptavidin or avidin-coated NPT IPR plate coated with biotinylated anti-phosphotyrosine antibody (PY20, Zymed labs, CA) followed by incubation for 30 minutes at room temperature to allow the binding of the phosphorylated pEY substrate to the PY20 coated NPT plate. Following this binding step, 50 ng Sulfo-TAG labeled anti-phosphotyrosine in buffer containing 25 mM Tris-HCl buffer pH 7.4, 5 mM MgCl2, 0.05 mM Na3VO4, 0.004% TritonX-100, 2 mM DTT and 0.05% IgG was added followed by incubation at room temperature for 30 mm. The unbound reagents were removed by one time washing with water, and the TAG label was detected in presence of 150 μl IPR assay buffer (0.4 mM Gly-Gly buffer, pH 7.8, 1 mM EDTA, 0.1 M TPA). The ECL signals were measured using an imaging plate reader.
# as §1, with “kinases. Autophosphorylation and phosphorylation of the pEY was measured as described in Examples 7 and 8.” for “kinases.”
# as §2
# BTK = target: T2, BTK (Homo sapiens, UniProt Q06187); test: Kinase inhibitor profiling, pEY phosphorylation
# T2 construct: specificity data for proteins generated from a library of eighteen full-length clones; host or cells: rabbit reticulocyte lysate, TnT coupled in vitro transcription/translation (cell-free)
# Procedure: as §3
# as §1, with “kinases. Autophosphorylation and phosphorylation of the pEY was measured as described in Examples 7 and 8.” for “kinases.”
# as §2
# T2 sequence (Q06187 whole entry): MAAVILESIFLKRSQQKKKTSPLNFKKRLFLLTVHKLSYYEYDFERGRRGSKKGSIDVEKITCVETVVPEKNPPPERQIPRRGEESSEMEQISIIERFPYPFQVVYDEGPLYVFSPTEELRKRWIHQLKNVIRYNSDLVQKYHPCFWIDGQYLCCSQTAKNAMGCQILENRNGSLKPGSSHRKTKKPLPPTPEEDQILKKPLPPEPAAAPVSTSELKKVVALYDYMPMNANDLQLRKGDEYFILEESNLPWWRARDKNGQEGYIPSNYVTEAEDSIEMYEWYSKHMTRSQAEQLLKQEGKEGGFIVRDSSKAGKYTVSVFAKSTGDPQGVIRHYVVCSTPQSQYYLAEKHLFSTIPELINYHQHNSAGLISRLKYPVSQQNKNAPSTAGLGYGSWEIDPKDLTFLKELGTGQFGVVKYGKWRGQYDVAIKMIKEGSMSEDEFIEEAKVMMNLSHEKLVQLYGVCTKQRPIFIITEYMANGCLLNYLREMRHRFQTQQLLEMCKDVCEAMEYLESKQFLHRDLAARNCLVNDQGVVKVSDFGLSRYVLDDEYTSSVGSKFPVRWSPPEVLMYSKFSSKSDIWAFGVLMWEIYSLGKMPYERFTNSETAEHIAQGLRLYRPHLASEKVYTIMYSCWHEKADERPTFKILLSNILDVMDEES
# T1 sequence (P06239 whole entry): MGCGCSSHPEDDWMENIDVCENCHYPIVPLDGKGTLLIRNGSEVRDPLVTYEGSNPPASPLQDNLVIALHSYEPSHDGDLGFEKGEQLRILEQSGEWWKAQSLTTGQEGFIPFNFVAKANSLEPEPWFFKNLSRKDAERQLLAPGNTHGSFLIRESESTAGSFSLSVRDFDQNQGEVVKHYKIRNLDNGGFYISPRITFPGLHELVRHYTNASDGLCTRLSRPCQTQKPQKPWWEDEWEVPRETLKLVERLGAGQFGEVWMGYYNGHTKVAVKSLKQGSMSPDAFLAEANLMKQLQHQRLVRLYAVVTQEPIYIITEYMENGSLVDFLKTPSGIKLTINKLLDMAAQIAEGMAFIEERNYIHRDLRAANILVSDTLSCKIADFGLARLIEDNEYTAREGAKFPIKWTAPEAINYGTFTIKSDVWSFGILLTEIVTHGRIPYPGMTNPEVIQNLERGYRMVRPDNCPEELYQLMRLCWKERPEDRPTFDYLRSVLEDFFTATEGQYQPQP
Molecule,"Inhibition specificity towards Autophosphorylation at 10X IC50, LCK (LCK [1])","Inhibition specificity towards pEY phosphorylation at 10X IC50, LCK (LCK [2])","Inhibition specificity towards pEY phosphorylation at 10X IC50, BTK (BTK)"
COc1cc2ncnc(Nc3ccc(O)cc3)c2cc1OC [WHI-P131],M (medium inhibition (“M”=between 25 to 50% of the activity remaining)),H (high inhibition (“H”=less than 25% of the activity remaining)),M (medium inhibition (“M”=between 25 to 50% of the activity remaining))
Cc1ccc(-c2nn(C(C)(C)C)c3ncnc(N)c23)cc1 [PP1],–,M (medium inhibition (“M”=between 25 to 50% of the activity remaining)),–
Cc1cc2ncc(-c3ccc(O)c(O)c3)nc2cc1C [AG-1433],H (high inhibition (“H”=less than 25% of the activity remaining)),–,H (high inhibition (“H”=less than 25% of the activity remaining))
COc1c(C=O)c(O)cc2c1C(=O)c1ccccc1C2=O [Damnacanthal],–,–,H (high inhibition (“H”=less than 25% of the activity remaining))
CC(C)(C)c1cc(C=C(C#N)C#N)cc(Br)c1O [AG-1024],–,–,H (high inhibition (“H”=less than 25% of the activity remaining))
COc1cc2ncnc(Nc3ccc(Cl)cc3F)c2cc1OC [VEGFR inhibitor],L (low inhibition (“L”=between 50–75% of the activity remaining)),H (high inhibition (“H”=less than 25% of the activity remaining)),M (medium inhibition (“M”=between 25 to 50% of the activity remaining))
Erbstatin analog,L (low inhibition (“L”=between 50–75% of the activity remaining)),–,–

# Source: patent publication US7063946B2, “Methods, reagents, kits and apparatus for protein function analysis” (Meso Scale Technologies, LLC., priority 2001, dated 2006)
